A short description of data set [1]: C0 in ICR mouse at 1 mg/kg, iv measured upto 24 hrs by LC-MS/MS analysis. Type of data set: ADME, organism-based. As to conditions: in vivo.
For data set [2], the system named is CT26. The experiment in a line: Induction of anti-tumor immunity in mouse CT26 cells assessed as increase in CXCL10 mRNA expression incubated for 2 days by quantitative real-time PCR analysis. The format is functional, cell-based. As to conditions: dose 0.04-0.44 µM, time 2.0 day. (Real-time PCR tracks product formation cycle by cycle.)
Data set [3] deals with CT26. The experiment in a line: Antitumor activity in immunocompetent mouse CT26 cell bearing Balb/c mouse model assessed as induction of IFN-beta release in tumor tissue at 6.25 to 25 mg/kg, IG treated twice a day measured after 14 days by immunohistochemistry staining based assay. The conditions noted are these: dose lower 6.25 mg/kg, dose upper […], time 14.0 day. Type of data set: functional, organism-based.

Data set [4] can be described thus: Cmax in ICR mouse at 10 mg/kg, IG measured upto 24 hrs by LC-MS/MS analysis. The format is ADME, organism-based. As to conditions: in vivo, po.
A short description of data set [5]: AUC (0 to infinity) in ICR mouse at 1 mg/kg, iv measured upto 24 hrs by LC-MS/MS analysis. The format is ADME, organism-based. As to conditions: in vivo.
The subject of data set [6] is CT26. Description: cells. As to conditions: Mus musculus, CT26, 144 h.
Data set [7] addresses T1, Poly [ADP-ribose] polymerase tankyrase-2 (Homo sapiens, UniProt Q9H2K2).
T1 sequence (Q9H2K2 whole entry): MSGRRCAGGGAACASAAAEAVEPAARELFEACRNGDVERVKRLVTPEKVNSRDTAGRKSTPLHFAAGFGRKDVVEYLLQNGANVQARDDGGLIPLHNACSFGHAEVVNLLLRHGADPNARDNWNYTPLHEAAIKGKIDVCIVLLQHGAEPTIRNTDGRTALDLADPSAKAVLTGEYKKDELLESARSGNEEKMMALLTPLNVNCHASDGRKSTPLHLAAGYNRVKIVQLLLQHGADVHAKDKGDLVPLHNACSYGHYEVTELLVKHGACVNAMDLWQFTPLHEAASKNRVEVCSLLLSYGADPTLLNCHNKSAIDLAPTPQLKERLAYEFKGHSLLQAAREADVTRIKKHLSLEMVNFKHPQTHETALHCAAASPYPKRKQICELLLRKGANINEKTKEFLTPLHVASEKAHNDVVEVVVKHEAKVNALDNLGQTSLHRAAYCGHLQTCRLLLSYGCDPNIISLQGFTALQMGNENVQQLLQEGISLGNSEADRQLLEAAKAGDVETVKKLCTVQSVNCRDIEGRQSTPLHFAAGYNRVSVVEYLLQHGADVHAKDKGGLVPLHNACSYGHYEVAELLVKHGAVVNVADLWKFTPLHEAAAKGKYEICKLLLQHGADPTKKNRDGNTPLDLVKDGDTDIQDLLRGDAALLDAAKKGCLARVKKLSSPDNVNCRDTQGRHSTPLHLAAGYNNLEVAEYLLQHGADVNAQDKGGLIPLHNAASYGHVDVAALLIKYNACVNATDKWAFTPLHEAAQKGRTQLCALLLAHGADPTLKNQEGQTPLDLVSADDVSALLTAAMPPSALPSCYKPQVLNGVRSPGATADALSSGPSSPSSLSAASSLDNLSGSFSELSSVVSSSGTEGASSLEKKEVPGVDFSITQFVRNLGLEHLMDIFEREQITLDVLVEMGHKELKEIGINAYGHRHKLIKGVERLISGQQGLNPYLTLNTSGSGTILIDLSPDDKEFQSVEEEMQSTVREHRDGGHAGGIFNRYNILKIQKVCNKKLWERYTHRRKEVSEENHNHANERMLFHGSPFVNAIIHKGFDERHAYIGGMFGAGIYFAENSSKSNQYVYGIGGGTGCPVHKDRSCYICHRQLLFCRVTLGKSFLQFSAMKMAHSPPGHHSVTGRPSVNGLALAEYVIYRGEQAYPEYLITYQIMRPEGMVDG
The experiment in a line: Inhibition of TNKS2 (unknown origin) measured after 1 hr incubation by microplate reader assay.

Data set [8] can be described thus: Half life in ICR mouse at 1 mg/kg, iv measured upto 24 hrs by LC-MS/MS analysis. As to conditions: in vivo. The format is ADME, organism-based.
For data set [9], the target named is T2, Protein mono-ADP-ribosyltransferase TIPARP (Mus musculus) (UniProt Q8C1B2).
T2 sequence (whole entry): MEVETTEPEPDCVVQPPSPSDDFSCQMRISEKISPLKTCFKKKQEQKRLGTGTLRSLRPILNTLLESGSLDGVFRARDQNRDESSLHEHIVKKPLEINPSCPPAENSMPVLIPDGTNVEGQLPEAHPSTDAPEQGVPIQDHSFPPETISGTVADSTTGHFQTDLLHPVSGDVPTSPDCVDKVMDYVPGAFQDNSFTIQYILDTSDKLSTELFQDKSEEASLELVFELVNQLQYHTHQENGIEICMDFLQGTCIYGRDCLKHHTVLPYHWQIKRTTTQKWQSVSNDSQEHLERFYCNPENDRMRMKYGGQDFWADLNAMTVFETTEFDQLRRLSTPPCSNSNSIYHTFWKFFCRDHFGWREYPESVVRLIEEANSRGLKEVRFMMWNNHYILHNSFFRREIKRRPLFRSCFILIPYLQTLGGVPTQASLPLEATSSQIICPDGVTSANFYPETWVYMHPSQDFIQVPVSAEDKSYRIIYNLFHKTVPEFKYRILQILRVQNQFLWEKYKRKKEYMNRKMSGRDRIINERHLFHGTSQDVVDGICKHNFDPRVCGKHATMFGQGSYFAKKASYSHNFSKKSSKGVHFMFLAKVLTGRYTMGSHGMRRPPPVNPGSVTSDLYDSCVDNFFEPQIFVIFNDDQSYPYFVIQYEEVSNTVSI
The experiment in a line: Inhibition of PARP7 in mouse CT26 cells assessed as increase in STAT1 phosphorylation incubated for 3 days by Western blot analysis. The format is cell-based. The conditions noted are these: dose 0.14-4 µM, time 3.0 day. (In general: Immunoblotting shows a protein as a band on a membrane.)

Data set [10] is described as follows: Antiproliferative activity against mouse AML12 cells measured after 6 days incubation by MTT assay. The format is toxicity, cell-based. On the technique in general: Formazan colour is commonly taken as a measure of viable cells.
Data set [11] is described as follows: MRT (0 to infinity) in ICR mouse at 1 mg/kg, iv measured upto 24 hrs by LC-MS/MS analysis. Type of data set: ADME, organism-based. The conditions noted are these: in vivo.
Data set [12] can be described thus: Toxicity in Balb/c mouse bearing mouse CT26 cells assessed as morphological changes in lung at 6.25 to 25 mg/kg, IG measured after 14 days by hematoxylin and eosin staining based assay. The format is organism-based. The conditions noted are these: in vivo, po, 336 h, dose 6.25-25 mg/kg, time 14 day.
Data set [13] is described as follows: Permeability across basolateral to apical side in human Caco-2 cells. The format is ADME, cell-based.
In data set [14] the test system is CT26. The experiment in a line: Antitumor activity against mouse CT26 cells implanted in Balb/c mouse assessed as increase in infiltration of CD3 positive CD8 positive T lymphocytes in tumors at 25 mg/kg, IG measured after 14 days by flow cytometry. The conditions noted are these: time 14.0 day. Type of data set: functional, organism-based.

Activity calls are given as the source filed them.

Broadly, the Cmax is the maximum level reached in the sampled fluid or tissue. Broadly, the AUC(0-inf) is the area under the concentration-time curve extrapolated to infinity. Read a high AUC(0-inf) as more exposure. Broadly, the IC50 is the concentration at which inhibition is half-maximal. A higher IC50 goes with a need for much substance. By half-life is commonly meant the time needed for the level to fall by half in the phase considered. High values mean slow loss, low ones fast loss. Broadly, the MRT inf is a mean duration of stay, worked out from the concentration-time curve. In general, Papp B→A refers to how fast a substance crosses the layer from the basolateral side.

In [1], `C[C@@H](C(=O)N1CCN(c2ncc(C(F)(F)F)cn2)CC1)n1cc2cccc(C(N)=O)c2n1` registered a C0 at 24 h of 1590 ng/mL. For the same compound, the Activity entry was “Dose-Dependent Effect” in the data set on CT26 [2] and “Non-Toxic” in data set [12]. For the same compound, the outcome in the data set on CT26 [3] and with CT26 [14] was Active. The Cmax in [4] turned out to be 7350 ng/mL. For the same compound, in [5], the total exposure AUC(0-inf) stood at 1800 ng·h/mL. In addition, the IC50 in the data set on CT26 [6] amounted to 36.1 µM; in data set [7], 0.694 µM. Also, the half-life in data set [8] was 1.22 h. Besides, the inhibition result in [9] was “Dose-Dependent Effect”. Further, in [10], the IC50 at 6 days is above 50 µM. Besides, the MRT inf in [11] is 1.52 h. The same compound had a Papp B→A in [13] of 20.7 ×10⁻⁶ cm/s.

Values taken from ChEMBL document CHEMBL5537136 (J Med Chem, 2024).
